In the SangsterLogP compilation:

Legend:
[1] = not given; remark: listed apart in the source
[2] = method code SF-AS, from DOI: 10.1007/bf02877675, PMID: 411721
[3] = method code SF-HPLC, from DOI: 10.1002/ps.2780220406
[4] = method code SF-AS, from DOI: 10.1007/s001289900721, PMID: 9657823
[5] = method code SF-HPLC, from DOI: 10.1248/cpb.43.1894
[6] = method code SF, from DOI: 10.1016/0360-3016(86)90226-9, PMID: 3744928; settings: pH 7.4
[7] = method code SF-GLC, from DOI: 10.1016/0378-4274(82)90116-3, PMID: 7090003
[8] = method code SF-AS, from DOI: 10.1016/0021-9673(91)80064-n
[9] = method code SF, from DOI: 10.1002/jps.2600830714, PMID: 7965679
[10] = method code SF-AS, from DOI: 10.2307/3577276, PMID: 2913608
[11] = method code SF-AS, from DOI: 10.1021/jm00223a031, PMID: 810572
[12] = method code SF-HPLC, from DOI: 10.3109/14756366.2013.845817, PMID: 24156741
[13] = not given; remark: listed apart in the source
[14] = not given; remark: listed apart in the source
[15] = not given; remark: listed apart in the source
[16] = method code SF, from DOI: 10.1016/0360-3016(89)90912-7, PMID: 2703384; settings: pH 7.4
[17] = method code SF-HPLC, from DOI: 10.1016/s0021-9673(01)88640-4

## CCc1cnccn1
other
  logP: 0.79

## Cc1cc[n+]([O-])cc1
[1]
  logP: -0.88

## Cc1c[nH]c2ccccc12
other
  logP: 2.61

## N#CC(C#N)=NNc1ccc(Cl)cc1
[2]
  logP: 3.08

## N#CC(C#N)=NNc1ccc(Cl)c(Cl)c1
[2]
  logP: 3.42

## Clc1ccc(Cn2cncn2)cc1
[3]
  logP: 1.84

## O=Cc1cc(Br)ccc1Br
[4]
  logP: 3.35

## N#CC(C#N)=NNc1ccc(Br)cc1
[2]
  logP: 3.38

## CSC(=S)c1ccccc1SC
[5]
  logP: 3.74

## O=[N+]([O-])c1ncn(CC(O)CCl)n1 (centres undefined)
[6]
  logD: 0.05

## C=CC(=O)OCCO
[7]
  logP: -0.21

## c1cncnc1
other
  logP: -0.34

## CCOC(=O)c1ccco1
other
  logP: 1.57

## CSC(=S)C1=C(SC)CCCC1
[5]
  logP: 3.81

## C=CC(=O)NCCCN1CCSCC1
[8]
  logP: 0.54

## CCOc1cc[n+]([O-])cc1
[1]
  logP: -0.53

## CO[C@H]1O[C@H](CO)[C@@H](O)[C@H](O)[C@H]1NC(=O)CNC(=O)N(CCCl)N=O
[9]
  logP: -1.04

## CCNS(=O)(=O)c1[nH]cnc1[N+](=O)[O-]
[10]
  logP: -0.37

## COc1ccc(O)c2nccc(C)c12
[11]
  logP: 2.75

## CC(C)C(=O)c1ccccc1
[5]
  logP: 2.59

## C=CC(=O)NCCN(C)C
[8]
  logP: -0.25

## Nc1ccc(O)c2ncccc12
[11]
  logP: -0.11

## N#Cc1cc[n+]([O-])cc1
[1]
  logP: -0.91

## C#CCn1cc(C(=O)NC(c2ccccc2)C(O)C(=O)NC2CCCC2)c(=O)c2cc(F)c(Cl)nc21 (centres undefined)
[12]
  logP: 5.82

## Fc1ccc(Cn2cncn2)cc1
[3]
  logP: 1.1

## O=[N+]([O-])c1nccn1CC(O)CN1CC1 (centres undefined)
[6]
  logD: -0.66

## COc1cc(C=O)cc(OC)c1OC
[4]
  logP: 1.39

## c1ccc(Cn2cncn2)cc1
[3]
  logP: 0.92

## Cn1cnc([N+](=O)[O-])c1S(N)(=O)=O
[10]
  logP: -0.74

## CC(C)CN[C@H]1CCS(=O)(=O)c2sc(S(N)(=O)=O)cc21
[13]
  logP: -0.03

## COc1ccc(Cn2cncn2)cc1
[3]
  logP: 1.1

## CC(=O)c1cc[n+]([O-])cc1
[1]
  logP: -0.93

## N#Cc1cc(-c2ccncc2)cnc1N1CCN(CCO)CC1
[14]
  logP: 2.14

## Cc1ccc(S(=O)(=O)Oc2c(C(=O)c3ccc(Cl)cc3Cl)c(C)nn2C)cc1
[15]
  logP: 3.9

## COCCNC(=O)C(F)(F)Cn1ccnc1[N+](=O)[O-]
[16]
  logD: -0.15

## COCC(F)Cn1ccnc1[N+](=O)[O-] (centres undefined)
[16]
  logD: 0.18

## O=NN(CCCl)C(=O)NCC(=O)NC1C(O)OC(CO)C(O)C1O (centres undefined)
[9]
  logP: -1.1

## CCN(OC(=O)c1ccccc1)C(=O)c1c(OC)ccc(Cl)c1OC
[15]
  logP: 3.73

## NS(=O)(=O)c1ccc([N+](=O)[O-])cc1[N+](=O)[O-]
[13]
  logP: 0.3

## Cc1ccnc2c(O)ccc(O)c12
[11]
  logP: 1.59

## CCOCC(O)Cn1cnc([N+](=O)[O-])n1 (centres undefined)
[6]
  logD: -0.07

## C=C(C)C(=O)OCCO
[7]
  logP: 0.47

## N#CN=[N+]([O-])c1ncccn1
[17]
  logP: -0.31

## N#CN=[N+]([O-])c1cc[n+]([O-])c2ccccc12
[17]
  logP: 1.12

## C#CCn1cc(C(=O)NC(CC(=O)NC2CCCC2)c2ccccc2)c(=O)c2cc(F)c(Cl)nc21 (centres undefined)
[12]
  logP: 5.96

## COC1OC(CO)C(O)C(O)C1NC(=O)C(C)NC(=O)N(CCCl)N=O (centres undefined)
[9]
  logP: -0.76

## N#CN=[N+]([O-])c1cccc2ccccc12
[17]
  logP: 3.17

## CCN(CC)CCCNc1ncc(-c2ccncc2)cc1C#N
[14]
  logP: 2.56

## [O-][n+]1ccc(Cl)cc1
[1]
  logP: -0.44

## CC(=O)OC[C@H]1O[C@@H](OC(C)=O)[C@H](NC(=O)CNC(=O)N(CCCl)N=O)[C@@H](OC(C)=O)[C@@H]1OC(C)=O
[9]
  logP: 0.61

## C=CC(=O)NCCCN(C)C
[8]
  logP: 0

## CC(NC(=O)N(CCCl)N=O)C(=O)NC1C(O)OC(CO)C(O)C1O (centres undefined)
[9]
  logP: -1.02

## N#CC(C#N)=NNc1ccc([N+](=O)[O-])cc1
[2]
  logP: 2.34

## CC(=O)Nc1ccccc1NS(=O)(=O)c1[nH]cnc1[N+](=O)[O-]
[10]
  logP: -0.06

## O=[N+]([O-])c1nc[nH]c1S(=O)(=O)NC1CCCCC1
[10]
  logP: 1.38

## CC(C)(C)c1ccc(NS(=O)(=O)c2[nH]cnc2[N+](=O)[O-])cc1
[10]
  logP: 2.28

## Oc1ccnc2c(O)cccc12
[11]
  logP: 0.62

## CSC(=S)C(C)(C)C(=O)c1ccccc1
[5]
  logP: 3.9

## CCOP(=S)(OCC)SCCSCC
[15]
  logP: 3.84

## NS(=O)(=O)c1cc(Cl)ccc1Cl
[13]
  logP: 1.65

## C#CCn1cc(C(=O)NC(c2ccccc2)C(O)C(=O)Nc2ccccn2)c(=O)c2cccnc21 (centres undefined)
[12]
  logP: 4.02

## CCOc1ccc(C=O)cc1OC
[4]
  logP: 1.63

## O=Cc1cc(O)cc(Br)c1
[4]
  logP: 2.5

## C=CC(=O)NCCCN(CC)CC
[8]
  logP: 0.72

## C=CC(=O)OCC(C)C
[7]
  logP: 2.22

## C=C(C)C(=O)OCC(C)C
[7]
  logP: 2.66

## N#CN=[N+]([O-])c1cc[n+]([O-])cc1
[17]
  logP: -0.41

## N#Cc1cc(-c2ccncc2)cnc1NCCCN1CCOCC1
[14]
  logP: 2.43

## CN(C)c1cccc2c(S(N)(=O)=O)cccc12
[13]
  logP: 1.83

## FC(F)(F)c1cccc(Cn2cncn2)c1
[3]
  logP: 1.74

## C#CCn1cc(C(=O)NC(CC(=O)Nc2ccccc2)c2ccccc2)c(=O)c2ccc(Cl)nc21 (centres undefined)
[12]
  logP: 5.41

## O=Cc1cccc(O)c1
[4]
  logP: 1.29

## C#CCn1cc(C(=O)NC(c2ccccc2)C(O)C(=O)NC2CCCCC2)c(=O)c2ccc(Cl)nc21 (centres undefined)
[12]
  logP: 5.14

## CCCOP(=S)(OCCC)SCC(=O)N1CCCCC1C (centres undefined)
[15]
  logP: 4.04

## O=[N+]([O-])c1cn(CC(O)CF)cn1 (centres undefined)
[16]
  logD: -0.44

## CSC1=CCCCC1
[5]
  logP: 3.3

## COP1(=S)OCc2ccccc2O1 (centres undefined)
[15]
  logP: 2.12

## O=[N+]([O-])c1nccn1CC(F)(F)CO
[16]
  logD: 0.04

## C=CC(=O)NCCCN(CCO)CCO
[8]
  logP: -0.6

## Cc1nc(N2CCNCC2)c(C#N)cc1-c1ccccc1
[14]
  logP: 3.15

## Cc1nc(N2CCNCC2)c(C#N)cc1-c1ccncc1
[14]
  logP: 2.96

## NS(=O)(=O)c1ccc([N+](=O)[O-])cc1
[13]
  logP: 0.58

## N#Cc1cc(-c2ccncc2)cnc1NCCN
[14]
  logP: 1.93

## C#CCn1cc(C(=O)NC(c2ccccc2)C(O)C(=O)Nc2ccccc2)c(=O)c2cccnc21 (centres undefined)
[12]
  logP: 4.25

## S=C1CCCC1=C1SCCS1
[5]
  logP: 3.12

## O=C(Cn1cnc([N+](=O)[O-])n1)NCCCO
[6]
  logD: -1.24

## NC(=O)CNC(=O)N(CCCl)N=O
[9]
  logP: -0.3

## C=CC(=O)NCCc1c[nH]cn1
[8]
  logP: -0.21

## O=C(Cn1cnc([N+](=O)[O-])c1)NCCO
[16]
  logD: -0.46

## CNC(=O)c1ccccc1
other
  logP: 1.05

## CC(=O)Nc1cccc(NS(=O)(=O)c2[nH]cnc2[N+](=O)[O-])c1
[10]
  logP: 0.2

## CC(=O)c1ccc(NN=C(C#N)C#N)cc1
[2]
  logP: 2.17

## CCCOP(=O)(OCCC)Oc1ccc(SC)cc1
[15]
  logP: 3.44

## N#CN=[N+]([O-])c1ccnc2ccccc12
[17]
  logP: 2.07

## N#CN=[N+]([O-])c1ccccn1
[17]
  logP: 0.53

## CCOC(=O)C(SP(=S)(OC)OC)c1ccccc1 (centres undefined)
[15]
  logP: 3.32

## O=[N+]([O-])c1ncn([C@H]2O[C@H](CO)[C@@H](O)[C@H]2O)n1
[6]
  logD: -1.54

## NS(=O)(=O)c1cc(C(=O)O)cc(N2CCCC2)c1Oc1ccccc1
[13]
  logP: 3.27

## N#Cc1cc(-c2ccncc2)cnc1N1CCNCC1
[14]
  logP: 2.51

## C=C(C)C(=O)OCC(C)O (centres undefined)
[7]
  logP: 0.97

## c1ccoc1
other
  logP: 1.31

## [O-][n+]1cccc2ccccc21
[1]
  logP: 0.41

## O=[N+]([O-])c1cn(CC(F)(F)CO)cn1
[16]
  logD: -0.21

## NS(=O)(=O)c1ccccc1[N+](=O)[O-]
[13]
  logP: 0.4

## C#CCn1cc(C(=O)NC(c2ccccc2)C(O)C(=O)Nc2ccccn2)c(=O)c2cc(F)c(Cl)nc21 (centres undefined)
[12]
  logP: 5.32

## COC(=O)Cn1cnc([N+](=O)[O-])n1
[6]
  logD: -0.38

## CSC(=S)C(C)(C)C(C)=O
[5]
  logP: 2.8

## Cc1ccc(O)c2ncccc12
[11]
  logP: 2.37

## O=Cc1ccc(O)c(Br)c1
[4]
  logP: 1.83

## CCCCc1ccc(Cn2cncn2)cc1
[3]
  logP: 2.81

## CC(C)OC(=O)COc1ccc(C=O)cc1
[4]
  logP: 1.88

## N#CC(C#N)=NNc1ccccc1Cl
[2]
  logP: 2.65

## Cc1ccnc2c(O)ccc(C)c12
[11]
  logP: 2.71

## C=C(C)C(=O)OC(C)(C)C
[7]
  logP: 2.54
